Experimental data: patent US5726203A, “Qinghaosu derivatives against AIDS” (priority 1993, dated 1998)

Legend:
HIV-1 (MT4) = test: Anti-HIV effect on MT4 cells, virus antigen expression (immunoenzymatic method); format: cell-based
From the text: The virus used was HIV-1 which had been obtained from Professor Montagnier of the Pastear Institute, France. The virus titer used in the experiment was 1×10^4 TCID50 /ml. The cell culture used was CEM cell line which was cultivated in the HIV laboratory of Institute of Virology, Chinese Academy of Preventive Medicine, for cultivation storage of HIV-1.
The compounds used in the experiment were qinghaosu, dihydroqinghaosu, Artesunate, Artemether, dihydroqinghaosu-methylcarbamate, dihydroqinghaosu-benzenecarbamate, qinghaosu-morpholinyl propylether maleate, dihydroqinghaosu-diethyl amino ethyl ether maleate, deoxyqinghaosu-morpholinyl ethyl ether maleate, qinghaosu-morpholinyl propanol ether maleate, qinghaosu-3,5-dimonpholinyl methyl-4-hydroxy benzyl ether maleate, dihydroqinghaosu-m-chlorobenzoate, qinghaosu-3-pyrrolidinylmethyl-4-hydroxybenzoate oxalate, and qinghaosu-3-morpholinylmethyl-4-hydroxybenzoate oxalate. […] The concentration of the original solution of these compounds were all 1 mg/ml.
(§1) a. Freshly cultured MT4 cells (5×10^5 /ml) were co-cultivated with the virus fluid (10^3 TCID50 /ml) in a CO2 incubator at 37° C. for 1-1.5 hours. RPMI 1640 complete medium (containing 10% Bovine serum and antibiotics, such as penicillin) was used to wash the unbound virus.
(§2) Complete medium was added to correct the concentration for use.
(§3) The experiment was carried out on the plates with 96 wells. 0.1 ml of the above-mentioned infected MT4 cell suspension was added into each well, and then 0.1 ml of various concentrations of the drugs were added. […] Each concentration of the drugs was added into two wells. Both the experiment group and the control group were incubated in a CO2 incubator at 37° C. The drug solution were changed 3 days later, and the following observations were carried out 6 days afterwards.
b. Observation on the growth situation of cells. Trypan blue dye was used to observe the quantity of live cells in each group.
(§4) c. Determination of the virus antigen expression. The immunoenzymatic method was used to examine the virus antigen expression. Cells from each group were separately smeared in two wells. They were fixed with cold acetone, HIV-positive serum was dropped into the wells. After incubated in a CO2 incubator at 37° C. for 30 minutes, they were washed with PBS for 3 times. Enzyme-labelled SPA was dropped into the wells. They were incubated in the same condition for 30 minutes, washed with PBS for 3 times, and then put in substrate solution to stain for 2-3 minutes, washed with distilled water, and observed under microscope. Normal cells were colorless, whereas virus-carrying cells appeared browrish red.
The mark used were as follows:
The experiment was repeated two to three times.
The concentration of the original fluid of these compounds were all 1 mg/ml. 0.1 ml was taken and added into 0.1 ml of virus-carrying cell suspension, thus the reaction concentrations were as follows: in the original fluid group, 0.1 mg/0.2 ml, i.e., 0.5 mg/ml; in 1×10^-1group, 0.05 mg/ml; in 1×10^-2 group, 0.005 mg/ml; in 1×10^-3 group, 0.0005 mg/ml, i.e., 0.5 μg/ml; and on the analogy of this.

Plasmodium Berghei = test: Peters' four day inhibition test in mice, erythrocytic stage of Plasmodium Berghei; format: in vivo; settings: once a day D0-D3, Hybrid Kunming strain mice, read-out: SD50 (the source's name)
From the text: Effect on Erythrocytic Stage of Plasmodium Berghei 1. "Four day inhibition test" in mice To determinate the SD50 with Peters' "four day inhibition test". Hybrid Kunming strain mice, body weight 18-22 g, were inculated with 1×10^7 parasites infected RBC intraperitoneally on D0. Dihydroqinghaosu-methylcarbamate, dihydroqinghaosu-butylcarbamate, dihydroqinghaosu-benzenecarbamate and dihydroqinghaosu-4-nitrobenzenecarbamate with different concentration were given once a day from D0 -D3. Blood smears from mouse's tail were made on D4, stained with Gimsa reagent and examined under microscope to count the infected and uninfected erthrocyte to get infected rate. Inhibitory rates of different dosages were calculated by following formula. The SD50 was calculated by the simplified probit analysis: [formula]

U937 HIV-1 [1] = test: Inhibition effect on HIV-1 infected U937 cells, activity of reverse transcriptase; format: cell-based; settings: control 24502
From the text: (§5) Furthermore, a part of the compounds according to the present invention were used to test their inhibition effect on U937 cell line (macrophage cell line)according to the methods in Experiment 1.

U937 HIV-1 [2] = test: Inhibition effect on HIV-1 infected U937 cells (macrophage cell line), HIV antigen test (IE); format: cell-based; settings: for Antigen test (IE): U937 HIV-1
Protocol: as §1, §2, §3, §4, §5

[3] = Subacute toxicologic study; settings: in vivo, read-out: basic safe dosage
Acute toxicity in mice = format: in vivo; settings: for LD50: mouse, in vivo, po
Protocol: Animals: Hybrid swiss strain mice (provided by Animal House of Institute of Chinese Mateia Media, China Academy of Traditional Chinese Medicine), 20-22 grams, less than 6 weeks age of both sexes fed in laboretory for 3-5 days observation and a random taking food and drinking.
Drugs: Dihydroqinghaosu-methylcarbamate and dihydroqinghaosu-benzenecarbamate.
Above two drugs in powder form were dissolved into peanut oil. The biggest dose were 2000 mg/kg and 2161 mg/kg respectively. The distances between two dose groups were 0.7 and 0.68 respectively, with 5 dose groups each drugs.
Method: The mice were given single dose of above compound respectively intragastrically, the acute intoxication manifestrations were observed the LD value (LD5, LD50 and LD95) and B value were determined by three days mortality.

[4] = cited from earlier work
[5] = test system: virus within infected macrophages; settings: cited from earlier work
HIV = settings: cited from earlier work
HIV-infected macrophages = settings: cited from earlier work
[6] = F + M, single dose intragastrically
[7] = F, single dose intragastrically
[8] = M, single dose intragastrically

## CC1CCC2C(C)C(OC(=O)Nc3ccccc3)OC3OC4(C)CCC1C32OO4 (stereo not shown) [Dihydroqinghaosu-benzenecarbamate]
HIV-1 (MT4); 1 × 10^-1 (50 μg/ml)
  effect on HIV-1 (MT4), virus antigen expression: - (positive cells were not seen in the whole well)
HIV-1 (MT4); 1 × 10^-2 (5 μg/ml)
  effect on HIV-1 (MT4), virus antigen expression: - (positive cells were not seen in the whole well)
HIV-1 (MT4); 1 × 10^-3 (0.5 μg/ml)
  effect on HIV-1 (MT4), virus antigen expression: - (positive cells were not seen in the whole well)
HIV-1 (MT4); 1 × 10^-4 (0.05 μg/ml)
  effect on HIV-1 (MT4), virus antigen expression: ± (there were only 1-2 doubtful positive cells in whole well)
HIV-1 (MT4); according to Table 1
  inhibition on HIV: distinct inhibition on HIV
Plasmodium Berghei
  ED50: 0.29 mg/kg
U937 HIV-1 [1]; 50 μg/ml
  Activity of reverse transcription (CPM): 2305 CPM
U937 HIV-1 [2]; 50 μg/ml
  Antigen test (IE): - (positive cells were not seen in the whole well)
[3]
  NOAEL: 54 mg/kg/day
Acute toxicity in mice; 480 mg/kg, female
  Death distribution of mice, exp./death: 6/0
Acute toxicity in mice; 480 mg/kg, female + male
  Death distribution of mice, exp./death: 12/1
Acute toxicity in mice; 480 mg/kg, male
  Death distribution of mice, exp./death: 6/1
Acute toxicity in mice; 686 mg/kg, female
  Death distribution of mice, exp./death: 6/1
Acute toxicity in mice; 686 mg/kg, female + male
  Death distribution of mice, exp./death: 12/3
Acute toxicity in mice; 686 mg/kg, male
  Death distribution of mice, exp./death: 6/2
Acute toxicity in mice; 980 mg/kg, female
  Death distribution of mice, exp./death: 6/2
Acute toxicity in mice; 980 mg/kg, female + male
  Death distribution of mice, exp./death: 12/4
Acute toxicity in mice; 980 mg/kg, male
  Death distribution of mice, exp./death: 6/2
Acute toxicity in mice; 1400 mg/kg, female
  Death distribution of mice, exp./death: 6/4
Acute toxicity in mice; 1400 mg/kg, female + male
  Death distribution of mice, exp./death: 12/7
Acute toxicity in mice; 1400 mg/kg, male
  Death distribution of mice, exp./death: 6/3
Acute toxicity in mice; 2000 mg/kg, female
  Death distribution of mice, exp./death: 6/6
Acute toxicity in mice; 2000 mg/kg, female + male
  Death distribution of mice, exp./death: 12/12
Acute toxicity in mice; 2000 mg/kg, male
  Death distribution of mice, exp./death: 6/6
Acute toxicity in mice; [6]
  LD5: 463.33 mg/kg
  LD95: 2452.08 mg/kg
  slope (B): 4.546
  LD50: 1070 mg/kg
Acute toxicity in mice; [7]
  LD5: 603.91 mg/kg
  LD95: 1993.51 mg/kg
  slope (B): 6.343
  LD50: 1100 mg/kg
Acute toxicity in mice; [8]
  LD5: 352.10 mg/kg
  LD95: 3069.59 mg/kg
  slope (B): 3.498
Acute toxicity in mice; P.O. (per os)
  LD50: 1060 mg/kg
Acute toxicity in mice; single dose intragastrically
  LD50: 1040 mg/kg

## Cc1cn([C@H]2C[C@H](N=[N+]=[N-])[C@@H](CO)O2)c(=O)[nH]c1=O [AZT, 3'-azido-3'-deoxythymidine, reference compound]
HIV-1 (MT4); 1 × 10^-1 (50 μg/ml)
  effect on HIV-1 (MT4), virus antigen expression: - (positive cells were not seen in the whole well)
HIV-1 (MT4); 1×10^-1, 1×10^-2, 1×10^-3 group
  virus-carrying (pink) cells on the smear: entirely no pink cells
HIV-1 (MT4); 1 × 10^-2 (5 μg/ml)
  effect on HIV-1 (MT4), virus antigen expression: - (positive cells were not seen in the whole well)
HIV-1 (MT4); 1 × 10^-3 (0.5 μg/ml)
  effect on HIV-1 (MT4), virus antigen expression: - (positive cells were not seen in the whole well)
[4]; 4-6 weeks after the use of AZT
  toxicity after use: inhibition of bone marrow appears, then severe anemia develops
[5]
  inhibitory effect on the virus within infected macrophages: does not exert inhibitory effect on the virus within infected macrophages
U937 HIV-1 [1]; 1 μg/ml
  Activity of reverse transcription (CPM): 10865 CPM
U937 HIV-1 [2]; 1 μg/ml
  Antigen test (IE): + (there were 2-3 or more positive cells in the whole well)
U937 HIV-1 [2]; from Table 2
  inhibition on U937 infected HIV-1: does not show the inhibition
HIV
  anti-HIV activity in vitro: found to possess anti-HIV activity in vitro

## Trichosanthin
[4]; clinical trial
  neurotoxicity in clinical trial: neurotoxicity in clinical trial, and in severe cases temporary dementia and even coma appeared
HIV-infected macrophages
  toxic substance from treated HIV-infected macrophages: produced and released a soluble toxic substance which might exert serious destructive effect to human brain cells
